Experiment [1] relates to pre-osteoclast Raw 264.7 cells. In words: Osteoclastogenesis coculture assay (TRAP staining). The format is cell-based, mouse. How it is done: After seeding 5×10^4 control or JAG1 OE tumor cells/well into 12-well plates, murine pre-osteoclast Raw 264.7 (2×10^5 cells/well) or MOCP5 (5×10^5 cells/well) cells in media containing 30 ng/ml RANKL and DMSO or 1 μM MRK-003 were added the next day. Media were changed every 2 days. TRAP staining was performed on day 6 using a leukocyte acid phosphatase kit (Sigma). TRAP^+-multinucleated cells were scored as mature osteoclasts. The number of nuclei per osteoclast was quantified using TRAP-stained images. Mouse specific qRT-PCR primers were used to selectively quantify Raw264.7 osteoclast gene expression levels after 6 days of coculture (see Table 1 below).
For primary osteoclast coculture assays, bone marrow cells were flushed out from femora and tibiae of 4- to 6-week-old wild-type FVB mice and plated in basal culture medium overnight. The next day, nonadherent cells were added at 1×10^6/well to 12-well plates that were previously seeded with either control or JAG1 OE tumor cells supplemented with 50 ng/ml RANKL and 50 ng/ml M-CSF. Medium was changed every 3 days. TRAP staining and scoring were performed on days 10-12.

Experiment [2] concerns SCP28 tumor cells cocultured with MC3T3-E1 osteoblasts. In words: Osteoblast coculture tumor cell quantification by luciferase assay. It counts as cell-based, human. The conditions noted are these: luciferase assay after 6 days; MRK-003 1 μM or 5 μM; anti-IL-6 0.5 and 1.0 μg/ml. Here is the method:
MC3T3-E1 cells were seeded at 2×10^5 cells/well in 12-well plates. After confluence was achieved, luciferase/GFP-labeled (GFP+) control and JAG1 OE cells were added at 1×10^4 cells/well in triplicate and treated with DMSO or 1 μM MRK-003. Media supplemented with appropriate drugs were changed every 2 days. After 6 days the coculture was subjected to a luciferase assay to selectively quantify the number of tumor cells. These values were normalized against luciferase quantification of 12-well plates seeded with tumor cells alone.
For transfection experiments, MC3T3-E1 osteoblasts were seeded at 2×10^5 cells/well in 12-well plates and grown to 95% confluence. […] Following 6 days, the coculture was lysed and subjected to a luciferase assay to selectively quantify the number of tumor cells. For gene expression analysis, RNA from cocultures was collected in RLT lysis buffer, extracted with RNeasy mini kit (Qiagen), and subjected to quantitative RT-PCR.
For in vitro experiments, GSI-IX (Calbiochem) and TGFβ Receptor 1 (EMD Biosciences 616451) were dissolved in DMSO. […] RNA and protein were collected and analyzed for JAGGED1 expression as described above. […]

`O=S1(=O)N[C@@]2(CN1CC(F)(F)F)[C@@H]1CC[C@H]2Cc2ccc(/C=C/CN3CCC(C(F)(F)F)CC3)cc2C1` [MRK-003]: in experiment [1] (15-fold increase by JAG1 OE relative to controls, 1 μM MRK-003, FIG. 15A), the “TRAP+ osteoclasts in JAG1 OE cocultures” value is “essentially abolished”. For the same molecule, the “mRNA expression of osteoclast differentiation markers in Raw 264.7 cells” value in experiment [1] (JAG1 OE cocultures) is reported as “suppressed”. Also, in experiment [1] (cocultures with Raw 264.7, FIG. 15C), the “osteoclast size and number of nuclei” value is reported as “smaller osteoclasts with fewer nuclei”. Further, in experiment [1] (treatment 2 days after seeding, FIG. 15B), the “Acp5 (mouse gene encoding TRAP) mRNA levels, delayed initiation of treatment (Late)” value is “failed to fully rescue”. Moreover, in experiment [2], the “growth advantage of JAG1 OE tumor cells in osteoblast coculture” value is “abolished”.
